From patent publication US10624866B2, “Composition for prevention or treatment of chronic pain comprising Evans blue” (THE INDUSTRY & ACADEMIC COOPERATION IN CHUNGNAM NATIONAL …, priority 2018, dated 2020) come the findings set out here.

Experiment [1] relates to animal model of SNL neuropathic pain. In words: von Frey filament test (mechanical allodynia) in spinal nerve ligation (SNL) model of neuropathic pain. Format: in vivo, Sprague-Dawley rats. The protocol:
5-week-old male SD white rats (Sprague-Dawley rats, 150 to 180 g) were purchased and were kept in an environment where each of night and day was continuously kept for 12 hours, and the temperature was maintained at 22±2° C. Further, water and feed were freely available for rats, and the rats were fed three or less per cage. At 6 weeks of age after adapted in an experimental environment for 7 days before the experiment, the rats responsive to stimulation of 8 g or more of von Frey filament were only selected, and then the spinal nerve ligation (SNL) procedure was performed thereon, inducing neuropathic pain (NPP). More specifically, after general anesthesia with respiratory anesthesia with isoflurane, the left lumbar (L6) […] was carefully removed for differentiation of the L4 and L5 spinal nerves (FIGS. 1A to 1B), and then the L5 spinal nerve was ligated with a silk suture thread (3-0), and the wound was sutured to prepare an experimental animal model of SNL neuropathic pain (FIGS. 1C to 1D). The analgesic effect of Evans blue of the present disclosure was confirmed by measuring mechanical hyperalgesia using the animal model of neuropathic pain. The von Frey filament test (test for mechanical allodynia) is a method for measuring the degree of mechanical allodynia after animal pain modeling. The rats were placed in an acrylic box disposed on a wire mesh test bench with a mesh size of 2×2 mm and adapted for at least 15 minutes. After the rats became quiet in movement, the pain threshold values (g) of the rat were evaluated using the von Frey filaments (Stoelting, USA) having a thickness of 0.4, 0.6, 1, 2, 4, 6, 8, and 15 g. […] The central part thereof was stimulated with von Frey filaments. When there was a positive reaction, stimulation was performed with weak filaments. When there was no positive reaction, stimulation was performed with strong filaments. As a result, the reduction of the pain threshold for the von Frey filament test on the seventh day after the pain model surgery was the maximum. From the seventh day when the reduction of the pain threshold for the von Frey filament test after the pain model surgery was the maximum, Evans blue (EB) was injected intrathecal injection with a Hamilton syringe, and the hind paw of the […] was stimulated with the von Frey filament to the measure minimum pain threshold. Changes in pain threshold were measured after 2 hours, 1 day, 2 days, 3 days, 5 days, and 7 days. At this time, 10 μl physiological saline was administered to the control group, and Evans blue was administered at various concentrations (5, 15, and 50 μg/10 μl).

The target of experiment [2] is T1, vesicular nucleotide transporter (VNUT) of the dorsal root ganglia (Rattus norvegicus, UniProt P0DX21).
T1 construct: examine the expression of VNUT in the dorsal root ganglia and dorsal horn of the spinal cord; from tissue; host or cells: rat dorsal root ganglia and spinal cord (L4 to L6) sections after in vivo Evans blue injection
T1 sequence (P0DX21 1-447): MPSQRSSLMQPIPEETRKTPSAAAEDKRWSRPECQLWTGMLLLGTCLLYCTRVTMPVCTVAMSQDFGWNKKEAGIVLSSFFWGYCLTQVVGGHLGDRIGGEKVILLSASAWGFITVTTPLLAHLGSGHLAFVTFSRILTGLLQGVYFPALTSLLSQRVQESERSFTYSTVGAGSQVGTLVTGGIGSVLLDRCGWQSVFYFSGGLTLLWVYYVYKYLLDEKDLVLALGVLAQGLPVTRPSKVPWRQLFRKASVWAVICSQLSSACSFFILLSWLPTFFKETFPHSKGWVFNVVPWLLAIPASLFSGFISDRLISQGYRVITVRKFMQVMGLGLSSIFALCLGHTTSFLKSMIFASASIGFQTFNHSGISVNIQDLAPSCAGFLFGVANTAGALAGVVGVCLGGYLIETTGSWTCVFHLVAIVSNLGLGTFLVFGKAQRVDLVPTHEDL
In words: Immunostaining with VNUT antibody after in vivo Evans blue injection, confocal microscopy. Details: species or system white rat. Particulars: dorsal root ganglia: axon, axon terminal and cell body; 2nd day after injection (FIGS. 4A to 4C). The protocol: To verify targeting VNUT of the dorsal root ganglia and dorsal horn of the spinal cord by Evans blue in vivo, VNUT was immune-stained, and Evans blue was administered in vivo to confirm whether it was targeted.
(§1) Specifically, it was immune-stained with VNUT antibody (green) to examine the expression of VNUT in the dorsal root ganglia and dorsal horn of the spinal cord. Evans blue was injected on the 7th day after the pain model surgery. On 2nd day after the injection of Evans blue, the white rat was anesthetized by intraperitoneal injection of sodium pentobarbital (100 mg/Kg). Then the phosphate buffer solution (PBS, pH 7.4) was intracardiac-perfused to entirely remove the blood, followed by perfusion with 4% paraformaldehyde to fix the result. Then, the spinal cord sites (L4 to L6) were carefully taken out, post-fixed in the same fixative overnight, and immersed in a 30% sucrose solution. Then, the tissues obtained by frozen sectioning of the spinal cord at […] were subjected to the normal serum blocking and then incubated overnight at 4° C. with VNUT (1:500; ABN 83; milipore) antibody. The next day, the result was washed with PBS and incubated with the cy2-conjugated secondary antibody (1:400) for 2 hours, and then the nuclear thereof was stained with DAPI. The tissues were attached to a slide glass and photographed using a confocal microscope (Leica, TCS SP8).

The test system of experiment [3] is neurons of the dorsal horn in the spinal cord. In words: NeuN immunostaining of spinal cord tissue injected with Evans blue. As to conditions: dorsal horn of the spinal cord (FIGS. 5A to 5C). Format: in vivo, white rat. The method, then:
as §1
To determine whether Evans Blue targeted the neurons of the dorsal horn in the spinal cord, the spinal cord tissue injected with Evans blue was stained with NeuN, a marker for identifying neurons. […]

The subject of experiment [4] is excitatory neurons located in the dorsal horn of the spinal cord. In words: vGluT2 immunostaining of spinal cord tissue injected with Evans blue. Format: in vivo, white rat. As to conditions: dorsal horn laminas I and II (FIGS. 5D to 5F).
Experiment [5] concerns inhibitory neurons distributed in laminas I and II. As to the kind of experiment: Calretinin immunostaining of spinal cord tissue injected with Evans blue. Format: in vivo, white rat. As to conditions: laminas I and II (FIG. 4G, FIGS. 5G to 5I).
For experiment [6], the system named is microglia cells present in the dorsal horn of the spinal cord. In words: Iba-1 immunostaining of spinal cord tissue injected with Evans blue. Format: in vivo, white rat. Particulars: laminas I to III (FIGS. 6A to 6C).
For another experiment, the system named is astrocytes. In words: GFAP immunostaining of spinal cord tissue injected with Evans blue. Format: in vivo, white rat. As to conditions: FIGS. 6D to 6F.

For the compound `Cc1cc(-c2ccc(/N=N/c3ccc4c(S(=O)(=O)O)cc(S(=O)(=O)O)c(N)c4c3O)c(C)c2)ccc1/N=N/c1ccc2c(S(=O)(=O)O)cc(S(=O)(=O)O)c(N)c2c1O` [Evans blue], the “intensity of pain (pain threshold) than before Evans blue treatment (0D)” value is given as “significant increase” in experiment [1] (5 μg intrathecal, on the 2nd and 3rd day (p<0.05)); “significant increase” in experiment [1] (15 μg intrathecal, after 2 hours and the 1st day (p<0.05)); “significant increase” in experiment [1] (50 μg intrathecal, after 2 hours and the 1st day (p<0.01), the 2nd day (p<0.001), the 3rd day, the 5th day (p<0.05)). Moreover, the “intensity of pain (pain threshold) compared to the control group treated with physiological saline” value in experiment [1] (50 μg intrathecal, on the 2nd day (p<0.001)) was “significant increase”. For the same compound, the “analgesic effect on pain (pain threshold, von Frey filament test)” value in experiment [1] (SNL rats, intrathecal injection on day 7 after surgery, 5, 15 and 50 μg/10 μl, versus control group treated only with physiological saline) was “overall increased meaningfully”. In experiment [1] (after intrathecal injection, gradually decreased thereafter), the “time of peak analgesic effect” value came to 3 days. Besides, the “overlap of Evans blue signal with VNUT expression” value in experiment [2] is on record as “overlaps”. Besides, the “overlap of NeuN (neuron marker) signals with Evans blue” value in experiment [3] is recorded as “most signals of NeuN, which is a neuron marker, overlapped”. The “targeting of excitatory neurons (vGluT2 stained around cell bodies of neurons targeted by Evans blue)” value in experiment [4] is given as “targeted excitatory neurons”. Besides, the “overlap of calretinin (inhibitory neurons) with Evans blue” value in experiment [5] is reported as “did not overlap”. Further, the “overlap of Iba-1 (microglial cell marker) signal with Evans blue signal” value in experiment [6] is “partially overlapped”. Besides, in the experiment on astrocytes, the “overlap of GFAP (astrocyte marker) signal with Evans blue” value was “did not overlap”.
